{
  "source": "paper PMC4685510",
  "about": "“A Cell Biologist’s Field Guide to Aurora Kinase Inhibitors” (Frontiers in Oncology, 2015)",
  "test_in_all_cases": "biochemical",
  "format_in_all_cases": "biochemical",
  "key": {"[1]": {"target": "T1, 363 human kinases (including Aurora A/B/C) (Homo sapiens, UniProt O15111)", "T1 sequence (O15111 1-745)": "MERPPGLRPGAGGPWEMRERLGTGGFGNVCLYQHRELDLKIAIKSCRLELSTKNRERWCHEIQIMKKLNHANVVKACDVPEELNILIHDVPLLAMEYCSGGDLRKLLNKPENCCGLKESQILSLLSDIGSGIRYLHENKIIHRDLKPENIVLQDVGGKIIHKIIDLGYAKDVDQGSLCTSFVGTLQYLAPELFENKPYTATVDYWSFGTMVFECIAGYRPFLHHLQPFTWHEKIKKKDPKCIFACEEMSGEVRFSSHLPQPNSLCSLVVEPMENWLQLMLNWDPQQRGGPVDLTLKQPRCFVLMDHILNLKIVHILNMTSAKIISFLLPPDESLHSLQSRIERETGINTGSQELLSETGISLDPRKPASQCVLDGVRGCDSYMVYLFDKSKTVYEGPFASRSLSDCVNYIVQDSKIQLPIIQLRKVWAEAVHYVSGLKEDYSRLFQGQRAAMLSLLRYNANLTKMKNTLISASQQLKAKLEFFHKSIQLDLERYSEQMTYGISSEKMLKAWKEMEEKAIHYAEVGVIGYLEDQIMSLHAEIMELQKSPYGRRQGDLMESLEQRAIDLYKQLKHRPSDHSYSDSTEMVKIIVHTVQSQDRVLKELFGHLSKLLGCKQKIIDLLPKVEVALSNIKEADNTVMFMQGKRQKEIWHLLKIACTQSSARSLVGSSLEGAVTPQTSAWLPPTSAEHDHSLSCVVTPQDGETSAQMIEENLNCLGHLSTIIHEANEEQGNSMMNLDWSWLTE", "details": "IKKa/CHUK; for remaining activity at 0.1 µM: 100 nM; for remaining activity at 0.1 µM / remaining activity at 0.5 µM: read-out: % Enzyme Activity (relative to DMSO controls)", "excerpt": "(§1) However, the Aurora A/B selectivity ratios derived from our in vitro and in vivo data can be compared to prioritize inhibitors."}, "[2]": {"target": "T2, 363 human kinases (including Aurora A/B/C) (Homo sapiens, UniProt O43318)", "T2 sequence (O43318 1-606)": "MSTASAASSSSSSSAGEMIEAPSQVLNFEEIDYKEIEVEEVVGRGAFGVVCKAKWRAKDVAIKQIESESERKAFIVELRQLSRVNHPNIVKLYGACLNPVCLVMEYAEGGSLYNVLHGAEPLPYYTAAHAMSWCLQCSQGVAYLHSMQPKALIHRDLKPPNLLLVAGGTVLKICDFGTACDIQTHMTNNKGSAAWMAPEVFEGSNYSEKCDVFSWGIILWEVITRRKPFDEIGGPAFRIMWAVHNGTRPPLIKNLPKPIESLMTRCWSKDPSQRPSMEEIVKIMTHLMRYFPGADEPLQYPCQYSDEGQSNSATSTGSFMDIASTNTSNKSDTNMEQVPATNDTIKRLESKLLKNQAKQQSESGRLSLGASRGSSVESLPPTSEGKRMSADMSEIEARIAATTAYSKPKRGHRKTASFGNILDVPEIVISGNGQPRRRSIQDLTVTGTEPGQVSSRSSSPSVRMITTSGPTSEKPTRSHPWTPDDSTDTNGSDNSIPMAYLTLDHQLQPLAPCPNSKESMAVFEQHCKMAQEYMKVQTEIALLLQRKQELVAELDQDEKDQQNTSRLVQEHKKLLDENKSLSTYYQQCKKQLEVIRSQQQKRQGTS", "details": "TAK1; for remaining activity at 0.1 µM: 100 nM; for remaining activity at 0.1 µM / remaining activity at 0.5 µM: read-out: % Enzyme Activity (relative to DMSO controls)", "excerpt": "as §1"}, "[3]": {"target": "363 human kinases (including Aurora A/B/C) (Homo sapiens, UniProt O96013)", "sequence (O96013 whole entry)": "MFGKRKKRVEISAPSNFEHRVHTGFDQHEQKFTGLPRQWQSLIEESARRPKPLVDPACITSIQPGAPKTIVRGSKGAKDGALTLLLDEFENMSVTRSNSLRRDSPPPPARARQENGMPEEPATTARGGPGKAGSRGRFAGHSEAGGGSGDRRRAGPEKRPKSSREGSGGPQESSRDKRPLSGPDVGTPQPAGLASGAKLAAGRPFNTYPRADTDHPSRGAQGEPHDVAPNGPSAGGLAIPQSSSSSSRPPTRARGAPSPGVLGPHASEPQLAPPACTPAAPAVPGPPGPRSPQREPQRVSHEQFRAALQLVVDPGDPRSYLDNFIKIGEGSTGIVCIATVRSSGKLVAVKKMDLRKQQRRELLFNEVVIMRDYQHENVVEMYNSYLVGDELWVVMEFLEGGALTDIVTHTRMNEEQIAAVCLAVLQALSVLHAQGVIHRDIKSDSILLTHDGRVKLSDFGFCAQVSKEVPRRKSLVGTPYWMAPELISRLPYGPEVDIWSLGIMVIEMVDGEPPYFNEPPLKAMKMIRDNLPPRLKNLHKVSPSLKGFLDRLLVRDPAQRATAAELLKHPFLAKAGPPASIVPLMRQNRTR", "details": "PAK4; for remaining activity at 0.1 µM: 100 nM; for remaining activity at 0.1 µM / remaining activity at 0.5 µM: read-out: % Enzyme Activity (relative to DMSO controls)", "excerpt": "as §1"}, "[4]": {"target": "363 human kinases (including Aurora A/B/C) (Homo sapiens, UniProt P49840)", "sequence (P49840 whole entry)": "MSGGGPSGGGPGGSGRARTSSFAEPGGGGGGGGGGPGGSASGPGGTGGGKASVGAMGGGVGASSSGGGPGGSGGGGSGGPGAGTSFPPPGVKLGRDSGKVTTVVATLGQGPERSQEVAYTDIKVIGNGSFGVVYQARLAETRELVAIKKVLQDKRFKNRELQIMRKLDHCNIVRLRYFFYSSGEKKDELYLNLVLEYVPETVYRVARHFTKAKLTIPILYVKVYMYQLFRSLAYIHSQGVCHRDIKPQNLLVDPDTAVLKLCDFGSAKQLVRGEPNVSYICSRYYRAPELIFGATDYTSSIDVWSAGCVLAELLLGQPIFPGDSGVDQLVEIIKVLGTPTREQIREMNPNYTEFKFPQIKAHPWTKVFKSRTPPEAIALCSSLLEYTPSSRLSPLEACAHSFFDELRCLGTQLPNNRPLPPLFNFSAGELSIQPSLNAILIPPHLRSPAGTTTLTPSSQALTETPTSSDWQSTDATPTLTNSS", "details": "GSK3a; for remaining activity at 0.1 µM: 100 nM; for remaining activity at 0.1 µM / remaining activity at 0.5 µM: read-out: % Enzyme Activity (relative to DMSO controls)", "excerpt": "as §1"}, "[5]": {"target": "363 human kinases (including Aurora A/B/C) (Homo sapiens, UniProt Q02779)", "sequence (Q02779 whole entry)": "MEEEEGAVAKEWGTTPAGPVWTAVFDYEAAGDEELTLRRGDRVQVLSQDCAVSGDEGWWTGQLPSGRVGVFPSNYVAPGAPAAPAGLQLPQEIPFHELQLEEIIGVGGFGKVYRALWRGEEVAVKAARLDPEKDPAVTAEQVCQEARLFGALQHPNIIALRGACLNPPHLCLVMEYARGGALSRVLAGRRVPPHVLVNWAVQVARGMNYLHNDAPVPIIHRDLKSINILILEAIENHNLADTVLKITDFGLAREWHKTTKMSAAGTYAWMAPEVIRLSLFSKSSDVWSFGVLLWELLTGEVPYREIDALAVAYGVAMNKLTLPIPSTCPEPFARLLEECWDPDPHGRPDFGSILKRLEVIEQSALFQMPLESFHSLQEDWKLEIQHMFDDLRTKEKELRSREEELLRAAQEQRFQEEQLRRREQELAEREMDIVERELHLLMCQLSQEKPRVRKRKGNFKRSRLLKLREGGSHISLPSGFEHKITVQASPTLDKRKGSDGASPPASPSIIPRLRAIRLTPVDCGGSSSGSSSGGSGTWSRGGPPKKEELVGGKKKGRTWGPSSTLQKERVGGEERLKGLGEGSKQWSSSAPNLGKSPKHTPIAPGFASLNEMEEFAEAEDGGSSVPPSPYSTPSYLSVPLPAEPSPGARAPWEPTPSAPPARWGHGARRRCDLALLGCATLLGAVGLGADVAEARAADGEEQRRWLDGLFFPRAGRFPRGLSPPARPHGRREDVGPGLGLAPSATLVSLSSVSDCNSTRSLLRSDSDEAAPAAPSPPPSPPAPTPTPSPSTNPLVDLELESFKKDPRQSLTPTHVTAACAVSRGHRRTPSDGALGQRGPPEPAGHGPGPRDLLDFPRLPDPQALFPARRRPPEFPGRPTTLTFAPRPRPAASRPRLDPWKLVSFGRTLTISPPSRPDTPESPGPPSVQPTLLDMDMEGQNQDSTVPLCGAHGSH", "details": "MLK2/MAP3K10; for remaining activity at 0.1 µM: 100 nM; for remaining activity at 0.1 µM / remaining activity at 0.5 µM: read-out: % Enzyme Activity (relative to DMSO controls)", "excerpt": "as §1"}, "[6]": {"target": "T3, 363 human kinases (including Aurora A/B/C) (Homo sapiens, UniProt Q13043)", "T3 sequence (Q13043 1-487)": "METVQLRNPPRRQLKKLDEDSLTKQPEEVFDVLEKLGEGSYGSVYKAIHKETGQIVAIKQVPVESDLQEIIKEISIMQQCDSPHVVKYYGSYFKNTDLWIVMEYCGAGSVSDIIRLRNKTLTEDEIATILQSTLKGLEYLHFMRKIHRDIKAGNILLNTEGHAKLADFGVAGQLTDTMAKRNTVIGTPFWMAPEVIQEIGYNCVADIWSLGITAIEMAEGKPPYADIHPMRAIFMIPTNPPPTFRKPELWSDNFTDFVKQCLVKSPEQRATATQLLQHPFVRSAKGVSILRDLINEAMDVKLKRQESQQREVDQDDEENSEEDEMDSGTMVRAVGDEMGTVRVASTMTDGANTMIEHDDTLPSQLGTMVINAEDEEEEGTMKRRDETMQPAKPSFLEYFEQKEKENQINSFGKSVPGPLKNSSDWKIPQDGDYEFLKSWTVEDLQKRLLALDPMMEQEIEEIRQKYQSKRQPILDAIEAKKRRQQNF", "details": "MST1/STK4; for remaining activity at 0.1 µM: 100 nM; for remaining activity at 0.1 µM / remaining activity at 0.5 µM: read-out: % Enzyme Activity (relative to DMSO controls)", "excerpt": "as §1"}, "[7]": {"target": "363 human kinases (including Aurora A/B/C) (Homo sapiens, UniProt Q16513)", "details": "PKN2/PRK2; for remaining activity at 0.1 µM: 100 nM; for remaining activity at 0.1 µM / remaining activity at 0.5 µM: read-out: % Enzyme Activity (relative to DMSO controls)", "excerpt": "as §1"}, "[8]": {"target": "363 human kinases (including Aurora A/B/C) (Homo sapiens, UniProt Q9Y3S1)", "sequence (Q9Y3S1 whole entry)": "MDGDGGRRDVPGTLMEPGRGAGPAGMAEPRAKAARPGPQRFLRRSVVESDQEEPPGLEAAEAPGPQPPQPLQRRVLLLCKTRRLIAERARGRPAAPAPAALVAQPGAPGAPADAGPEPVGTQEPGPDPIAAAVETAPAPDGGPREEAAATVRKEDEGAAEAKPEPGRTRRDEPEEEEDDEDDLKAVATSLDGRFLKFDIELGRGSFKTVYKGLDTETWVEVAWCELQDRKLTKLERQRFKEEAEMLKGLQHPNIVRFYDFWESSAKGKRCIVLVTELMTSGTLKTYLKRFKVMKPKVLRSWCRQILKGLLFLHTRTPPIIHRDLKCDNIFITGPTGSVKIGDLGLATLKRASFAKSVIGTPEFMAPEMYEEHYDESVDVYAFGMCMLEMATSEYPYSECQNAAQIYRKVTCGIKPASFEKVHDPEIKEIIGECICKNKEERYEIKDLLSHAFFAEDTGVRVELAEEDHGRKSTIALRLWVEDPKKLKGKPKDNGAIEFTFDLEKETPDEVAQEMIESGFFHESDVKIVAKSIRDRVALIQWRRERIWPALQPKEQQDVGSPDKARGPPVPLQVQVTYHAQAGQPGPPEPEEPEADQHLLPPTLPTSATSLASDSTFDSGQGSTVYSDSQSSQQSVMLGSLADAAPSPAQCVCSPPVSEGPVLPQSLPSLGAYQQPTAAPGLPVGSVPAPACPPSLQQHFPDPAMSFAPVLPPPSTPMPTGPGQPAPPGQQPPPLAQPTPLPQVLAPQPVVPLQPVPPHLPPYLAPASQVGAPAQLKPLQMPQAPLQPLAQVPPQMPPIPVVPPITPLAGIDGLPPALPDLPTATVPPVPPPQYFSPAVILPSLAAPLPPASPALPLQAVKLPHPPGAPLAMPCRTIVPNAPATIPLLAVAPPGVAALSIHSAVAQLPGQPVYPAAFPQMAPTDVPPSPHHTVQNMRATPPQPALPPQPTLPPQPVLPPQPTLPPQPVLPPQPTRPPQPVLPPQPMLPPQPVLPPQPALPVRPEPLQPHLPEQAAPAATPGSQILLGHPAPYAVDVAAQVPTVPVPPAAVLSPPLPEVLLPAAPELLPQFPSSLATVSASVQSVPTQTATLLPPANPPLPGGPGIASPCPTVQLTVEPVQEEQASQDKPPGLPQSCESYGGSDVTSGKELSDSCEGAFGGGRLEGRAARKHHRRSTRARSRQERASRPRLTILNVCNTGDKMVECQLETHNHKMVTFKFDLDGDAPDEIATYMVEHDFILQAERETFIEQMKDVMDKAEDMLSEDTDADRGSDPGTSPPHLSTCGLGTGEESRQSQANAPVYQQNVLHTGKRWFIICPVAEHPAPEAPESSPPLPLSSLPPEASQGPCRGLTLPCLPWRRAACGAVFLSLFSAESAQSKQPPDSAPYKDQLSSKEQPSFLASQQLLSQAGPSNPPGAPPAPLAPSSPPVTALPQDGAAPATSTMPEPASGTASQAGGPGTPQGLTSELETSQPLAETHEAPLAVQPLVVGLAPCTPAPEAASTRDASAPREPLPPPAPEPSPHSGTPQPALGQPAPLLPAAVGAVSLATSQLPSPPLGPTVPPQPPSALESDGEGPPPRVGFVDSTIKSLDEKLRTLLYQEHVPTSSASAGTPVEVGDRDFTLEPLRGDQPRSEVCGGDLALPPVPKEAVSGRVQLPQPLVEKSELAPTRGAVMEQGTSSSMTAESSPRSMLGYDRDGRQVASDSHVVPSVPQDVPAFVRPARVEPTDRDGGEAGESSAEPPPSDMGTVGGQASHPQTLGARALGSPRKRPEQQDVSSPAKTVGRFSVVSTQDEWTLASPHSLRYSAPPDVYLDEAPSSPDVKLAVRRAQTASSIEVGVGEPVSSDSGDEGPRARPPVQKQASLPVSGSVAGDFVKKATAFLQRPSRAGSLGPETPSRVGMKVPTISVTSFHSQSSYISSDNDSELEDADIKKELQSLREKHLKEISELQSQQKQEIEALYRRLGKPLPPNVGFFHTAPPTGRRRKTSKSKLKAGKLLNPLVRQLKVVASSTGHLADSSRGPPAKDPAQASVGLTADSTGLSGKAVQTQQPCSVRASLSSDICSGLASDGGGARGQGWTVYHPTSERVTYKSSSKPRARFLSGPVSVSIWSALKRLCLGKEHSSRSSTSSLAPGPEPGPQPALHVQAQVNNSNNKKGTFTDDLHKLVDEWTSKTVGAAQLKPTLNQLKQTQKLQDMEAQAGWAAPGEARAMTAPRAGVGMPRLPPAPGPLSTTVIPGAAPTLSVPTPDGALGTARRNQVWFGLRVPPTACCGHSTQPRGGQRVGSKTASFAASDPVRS", "details": "WNK2; for remaining activity at 0.1 µM: 100 nM; for remaining activity at 0.1 µM / remaining activity at 0.5 µM: read-out: % Enzyme Activity (relative to DMSO controls)", "excerpt": "as §1"}},
  "data": [
    {"molecule": "CCn1cc(-c2ccnc3[nH]c(-c4cccc(CN(C)C)c4)cc23)c(-c2ccc(NC(=O)N(C)C)cc2)n1", "note": "[GSK1070916]", "values": [
      {"measurement": "remaining activity at 0.1 µM", "setting": "[1]", "value": 126, "unit": "%"},
      {"measurement": "remaining activity at 0.1 µM", "setting": "[2]", "value": 99, "unit": "%"},
      {"measurement": "remaining activity at 0.1 µM", "setting": "[3]", "value": 106, "unit": "%"},
      {"measurement": "remaining activity at 0.1 µM", "setting": "[4]", "value": 99, "unit": "%"},
      {"measurement": "remaining activity at 0.1 µM", "setting": "[5]", "value": 75.6, "unit": "%"},
      {"measurement": "remaining activity at 0.1 µM", "setting": "[6]", "value": 105, "unit": "%"},
      {"measurement": "remaining activity at 0.1 µM", "setting": "[7]", "value": 115, "unit": "%"},
      {"measurement": "remaining activity at 0.1 µM", "setting": "[8]", "value": 92.3, "unit": "%"}
    ]},
    {"molecule": "O=C(O)[C@]1(Cc2cccc(Nc3nccs3)n2)CC[C@@H](Oc2cccc(Cl)c2F)CC1", "note": "[MK-5108]", "values": [
      {"measurement": "remaining activity at 0.1 µM", "setting": "[1]", "value": 118, "unit": "%"},
      {"measurement": "remaining activity at 0.5 µM", "setting": "[1]; 500 nM", "value": 113, "unit": "%"},
      {"measurement": "remaining activity at 0.1 µM", "setting": "[2]", "value": 93.8, "unit": "%"},
      {"measurement": "remaining activity at 0.5 µM", "setting": "[2]; 500 nM", "value": 79.1, "unit": "%"},
      {"measurement": "remaining activity at 0.1 µM", "setting": "[3]", "value": 92.8, "unit": "%"},
      {"measurement": "remaining activity at 0.5 µM", "setting": "[3]; 500 nM", "value": 89.8, "unit": "%"},
      {"measurement": "remaining activity at 0.1 µM", "setting": "[4]", "value": 32.5, "unit": "%"},
      {"measurement": "remaining activity at 0.5 µM", "setting": "[4]; 500 nM", "value": 24.7, "unit": "%"},
      {"measurement": "remaining activity at 0.1 µM", "setting": "[5]", "value": 23.5, "unit": "%"},
      {"measurement": "remaining activity at 0.5 µM", "setting": "[5]; 500 nM", "value": 5.55, "unit": "%"},
      {"measurement": "remaining activity at 0.1 µM", "setting": "[6]", "value": 81.8, "unit": "%"},
      {"measurement": "remaining activity at 0.5 µM", "setting": "[6]; 500 nM", "value": 65.6, "unit": "%"},
      {"measurement": "remaining activity at 0.1 µM", "setting": "[7]", "value": 108, "unit": "%"},
      {"measurement": "remaining activity at 0.5 µM", "setting": "[7]; 500 nM", "value": 108, "unit": "%"},
      {"measurement": "remaining activity at 0.1 µM", "setting": "[8]", "value": 83, "unit": "%"},
      {"measurement": "remaining activity at 0.5 µM", "setting": "[8]; 500 nM", "value": 33.8, "unit": "%"}
    ]},
    {"molecule": "O=C(c1cccc(Cl)c1F)N1CCN(Cc2cccc(Nc3nccs3)n2)CC1", "note": "[MK-8745]", "values": [
      {"measurement": "% Enzyme Activity (relative to DMSO controls)", "setting": "[1]; 500 nM", "value": 107.82, "unit": "%"},
      {"measurement": "remaining activity at 0.5 µM", "setting": "[1]; 500 nM", "value": 114, "unit": "%"},
      {"measurement": "% Enzyme Activity (relative to DMSO controls)", "setting": "[2]; 500 nM", "value": 93.95, "unit": "%"},
      {"measurement": "remaining activity at 0.5 µM", "setting": "[2]; 500 nM", "value": 96.6, "unit": "%"},
      {"measurement": "% Enzyme Activity (relative to DMSO controls)", "setting": "[3]; 500 nM", "value": 92.31, "unit": "%"},
      {"measurement": "remaining activity at 0.5 µM", "setting": "[3]; 500 nM", "value": 95.9, "unit": "%"},
      {"measurement": "% Enzyme Activity (relative to DMSO controls)", "setting": "[4]; 500 nM", "value": 21.35, "unit": "%"},
      {"measurement": "remaining activity at 0.5 µM", "setting": "[4]; 500 nM", "value": 23, "unit": "%"},
      {"measurement": "% Enzyme Activity (relative to DMSO controls)", "setting": "[5]; 500 nM", "value": 79.50, "unit": "%"},
      {"measurement": "remaining activity at 0.5 µM", "setting": "[5]; 500 nM", "value": 79.9, "unit": "%"},
      {"measurement": "% Enzyme Activity (relative to DMSO controls)", "setting": "[6]; 500 nM", "value": 46.49, "unit": "%"},
      {"measurement": "remaining activity at 0.5 µM", "setting": "[6]; 500 nM", "value": 46.6, "unit": "%"},
      {"measurement": "% Enzyme Activity (relative to DMSO controls)", "setting": "[7]; 500 nM", "value": 103.16, "unit": "%"},
      {"measurement": "remaining activity at 0.5 µM", "setting": "[7]; 500 nM", "value": 104, "unit": "%"},
      {"measurement": "% Enzyme Activity (relative to DMSO controls)", "setting": "[8]; 500 nM", "value": 101.71, "unit": "%"},
      {"measurement": "remaining activity at 0.5 µM", "setting": "[8]; 500 nM", "value": 102, "unit": "%"}
    ]}
  ]
}
